# Legend:
# ct-DNA duplex = assay: Circular dichroism of ct-DNA with cATC derivatives; type: binding; conditions: increasing concentration of cATC derivatives
# Source text: Further, we examined the effect of cATC derivatives (6a/6e/6j/6n) on the ct-DNA duplex structure by circular dichroism (CD) studies. We recorded the CD spectra of ct-DNA with the increasing concentration of cATC derivatives (SM, Fig. S24). […] Next, we examined the binding site of cATC derivative (ligand) at the DNA duplex structure by using AutoDock-Vina, a well-reported computational docking program. We performed docking of cATC derivatives (6a/6d/6k) crystal structure (ligand) with dodecamer DNA duplex crystal structure (PDB ID-1BNA) as the receptor. Our docking results strongly support the non-covalent interaction of cATC derivatives (6a/6d/6k) at the DNA-minor groove with the binding affinity ~7.0 Kcal/mole, mostly hydrophobic interactions (SM, Figs. S25–7, Table S8). […] Overall, cATC derivatives non-covalently bind with DNA duplex through the non-intercalative mode without affecting the native duplex structure. Next, we examined the DNA binding affinity of cATC derivatives (6e/6j/6n) by gel-electrophoresis. The different concentrations of human genomic DNA were treated with EtBr (control) and cATC derivatives (6e/6j/6n) and ran on 1% agarose gel (SM, Fig. S28A–D). […] Further, the Microscale thermophoresis (MST) technique was used to calculate the binding affinities of cATC derivatives (6e/6j/6n) (20 µM) with varying concentrations of human genomic DNA (40 fM to 75 pM).
# HeLa cells [1] = assay: MTS cell viability assay in HeLa; type: cell-based; conditions: 10 nM to 50 μM, 18 h
# Description: We investigated the effect of nine cATC derivatives (6b/6d/6e/6f/6i/6j/6k/6l/6n) on cell viability in cancer cell-line HeLa and transformed normal cell-line HEK293. We treated cells with the varying concentrations of the compounds ranging from 10 nM to 50 μM for 18 h (optimized).
# MTS assay (CellTiter 96® AQueous One Solution Cell Proliferation Assay (Promega, USA) was used to determine the cell viability. HeLa and HEK293 cells (20,000 cells in each well) were plated in 96 well plate and treated with 6e, 6j, and 6n varying concentrations of the compounds ranging from 10 nM to 50 μM for 18 h. The assay was carried out according to the manufacturer’s instructions. Finally, the plate was read in Varioskan™ LUX multimode microplate reader (Thermo Fisher Scientific) at 490 nm.
# Cell scavenging activity was calculated using the following formula:
# OD(490nm) (control) – OD(490nm) (Test)/OD(490nm) (control) × 100%
# Cell Viability of the cell was calculated using the following formula: […]
# HeLa cells [2] = assay: cells; parameters: MTS cell viability assay, absorbance at 490 nm; conditions: Homo sapiens, 18 h; read-out: IC50 concentration in (µM), HeLa
# Description: MTS assay (CellTiter 96® AQueous One Solution Cell Proliferation Assay (Promega, USA) was used to determine the cell viability. HeLa and HEK293 cells (20,000 cells in each well) were plated in 96 well plate and treated with 6e, 6j, and 6n varying concentrations of the compounds ranging from 10 nM to 50 μM for 18 h. The assay was carried out according to the manufacturer’s instructions. Finally, the plate was read in Varioskan™ LUX multimode microplate reader (Thermo Fisher Scientific) at 490 nm. We investigated the effect of nine cATC derivatives (6b/6d/6e/6f/6i/6j/6k/6l/6n) on cell viability in cancer cell-line HeLa and transformed normal cell-line HEK293. We treated cells with the varying concentrations of the compounds ranging from 10 nM to 50 μM for 18 h (optimized). […] Cell scavenging for 6e and 6j at 50 μM was 84.74% and 89.87%, respectively, and for 6n at 30 μM it was 75.43%. Corresponding cell viability was 15.25%, 10.13% and, 24.56%, respectively. Fluorescence signal became visible inside cells at 12 μM, 12 μM, and 20 μM concentrations for 6e, 6j, and 6n, respectively (SM, Figs. S31, S34, S37). […] Scavenging activity for 6e, 6j, and 6n was 61.1%, 18.23%, and 30.1%, respectively at 30 μM concentration (Fig. 5D–F). Corresponding cell viability was 38.82%, 81.76%, and 69.86%, respectively. The IC50 value of all the compounds was at the micromolar (μM) level which is shown in the Supplemental Material (Table S9 and S10).
SMILES,melting point [°C],IC50 (HeLa cells [2]) [µM],effect on B-type duplex CD spectrum of ct-DNA (ct-DNA duplex),effect on HeLa cell proliferation (HeLa cells [1])
"O=C([O-])C1C(c2ccccc2)N(Cc2ccccc2)[c+]2cccccc2N1CCc1ccccc1 (stereo not drawn) [Compound 6a, N-benzyl-N-phenylethyl phenyl troponyl dihydropyrazinium carboxylate]",135 to 140,–,almost remained unchanged,–
COc1cc(OC)cc(C2C(C(=O)[O-])N(CCc3ccccc3)c3ccccc[c+]3N2Cc2ccccc2)c1 (stereo not drawn) [Compound 6b],–,> 50,–,no or minimal effect
"O=C([O-])C1C(c2ccc([N+](=O)[O-])cc2)N(Cc2ccccc2)[c+]2cccccc2N1CCc1ccccc1 (stereo not drawn) [Compound 6d, N-Benzyl-N-phenylethyl 4-nitrophenyl troponyl dihydrapyrazine carboxylic acid]",–,> 50,–,no or minimal effect
N#Cc1ccc(C2C(C(=O)[O-])N(CCc3ccccc3)c3ccccc[c+]3N2Cc2ccccc2)cc1 (stereo not drawn) [Compound 6f],–,> 50,–,no or minimal effect

# Second part, led by results:
melting point [°C],IC50 (HeLa cells [2]) [µM],SMILES,effect on B-type duplex CD spectrum of ct-DNA (ct-DNA duplex),effect on HeLa cell proliferation (HeLa cells [1])
122 to 125,> 50,C#CCN1[c+]2cccccc2N(CCc2ccccc2)C(C(=O)[O-])C1c1ccccc1 (stereo not drawn) [Compound 6i],–,no or minimal effect
123 to 125,–,"CCCCCCCCN1[c+]2cccccc2N(CCc2ccccc2)C(C(=O)[O-])C1c1ccc(F)cc1 (stereo not drawn) [Compound 6k, N-octyl-N-phenylethyl 4-fluorophenyl troponyl dihydrapyrazinium carboxylate]",–,–
–,> 50,O=C([O-])C1C(c2ccc(O)cc2)N(C2CCCCC2)[c+]2cccccc2N1CCc1ccccc1 (stereo not drawn) [Compound 6l],–,no or minimal effect
118 to 120,–,O=C([O-])C1C(C=Cc2ccccc2)N(Cc2ccccc2)[c+]2cccccc2N1CCc1ccccc1 (stereo not drawn) [Compound 6n],–,–

# Reference: publication PMC9814901, “One-pot synthesis of cyclic-aminotropiminium carboxylate derivatives with DNA binding and anticancer properties” (Communications Chemistry, 2022)
